The text below walks through data of article PMC12075751 (Nature Communications, 2025).

The test system of series [1] is FABP4. Put plainly: ELISA of serum FABP4, OVX mice, oral gavage study. The note with it: 28 days daily oral gavage, ALD […], BMS 10 mg/kg. The series is classed as in vivo, mouse. In general terms: In an ELISA, binding on a coated surface is turned into a signal by an enzyme label.
The test system of the next series is PINP. The series can be described thus: ELISA of serum PINP, OVX mice, oral gavage study. The following applies: vs Model. The series is classed as in vivo, mouse.
In another series the test system is CTX-1. The series can be described thus: ELISA of serum CTX-1, OVX mice, oral gavage study. It counts as in vivo, mouse.
Series [2] deals with OVX mice. Put plainly: H&E staining of bone marrow adipose tissue, OVX mice, oral gavage study. The series is classed as in vivo, mouse. The following applies: BMS vs ALD.
Series [3] deals with FABP4. Put plainly: IHC of FABP4 in tibial bone marrow, OVX mice, oral gavage study. The series is classed as in vivo, mouse. The note with it: BMS vs ALD.
Another series relates to human BMSCs. Put plainly: Osteoblastic differentiation of BMSCs, Alizarin Red staining. It counts as cell-based. The note with it: FABP4 25 or 50 ng/mL, with BMS 5 or 10 μM, 21-day induction.
The test system of a further series is TRAP, c-Fos, NFATc1. Put plainly: Western Blotting of OCs differentiation marker proteins. It counts as cell-based, mouse. The following applies: OCs + BMS. Background: Immunoblotting shows a protein as a band on a membrane.
In series [4] the test system is OVX mice. It counts as in vivo, mouse.
Series [5] has as its system OVX mice. It counts as in vivo, mouse. The following applies: BMS 10 mg/kg oral.
For series [6], the system named is OVX mice. The series is classed as in vivo, mouse. The following applies: BMS 10 mg/kg oral. The source holds these as a separate data set.
In series [7] the test system is OVX mice. Put plainly: Three-point bending test on femoral midshaft, OVX mice, oral gavage study. It counts as in vivo, mouse. The note with it: oral administration of BMS.
A short description of the next series: PK analysis in SD rats. The series is classed as in vivo, rat.
Another series relates to BMMs. The series can be described thus: OCs formation from BMMs. The series is classed as cell-based, mouse. The note with it: 25 ng/mL FABP4 during RANKL induction of BMMs.
Series [8] deals with OCs. Put plainly: Bone resorption activity of mature OCs on bovine bone slices. The following applies: SEM. It counts as cell-based, mouse.
In series [9] the test system is OCs. The series can be described thus: F-actin staining of OCs. The series is classed as cell-based, mouse. The following applies: vs group with only RANKL and M-CSF.
In series [10] the test system is intracellular Ca2+ in OCs. The series can be described thus: Ca2+ concentration detection in OCs. It counts as cell-based, mouse. The note with it: OCs + FABP4 (25 ng/mL).
Setting [11] is: OVX mice, BMS 10 mg/kg oral, 28 days.

For the molecule `NCCCC(O)(P(=O)(O)O)P(=O)(O)O` [ALD, alendronate sodium], the “serum FABP4 levels vs Model group” value in the series with FABP4 [1] was “significantly reduced”. Also, in the series on PINP, the “bone formation (serum PINP)” value is listed as “little effect”. In addition, in the series with CTX-1, the “bone resorption (serum CTX-1)” value was “reduced”. The “bone marrow fat tissue (H&E staining)” value with OVX mice [2] is “no significant difference”. Also, the “FABP4 protein expression in bone marrow (IHC)” value in the series on FABP4 [3] is “no significant difference”.

With `CCc1c(-c2ccccc2)c(-c2ccccc2)nn1-c1ccccc1-c1cccc(OCC(=O)O)c1` [BMS309403], in the series with human BMSCs, the “osteogenic differentiation capacity of BMSCs (Alizarin Red staining)” value was “neither the FABP4 protein nor its inhibitor affected”. The “TRAP, c-Fos, and NFATc1 protein levels” value with TRAP, c-Fos, NFATc1 was “suppression”. Further, the “bone resorption (serum CTX-1)” value with CTX-1 was “reduced”. Besides, the “efficacy in femur compared to ALD” value with OVX mice [4] (BMS 10 mg/kg, 7.7 times the ALD dose ([…]), oral) is on record as “did not achieve the same efficacy”. Further, in the series on OVX mice [4] (setting [11]), the “femoral BMD” value is “increased” and the “trabecular thickness (Tb.Th), distal femur” value was “increased”. The “trabecular number (Tb.N), distal femur” value in the series on OVX mice [4] (OVX mice, BMS 10 mg/kg oral, 28 days, listed as BMS) is on record as “increased”. Besides, in the series with OVX mice [5], the “BMD, L5 lumbar vertebra” value is on record as “significantly improving”; the “Tb.N, L5 lumbar vertebra” value is “significantly improving”; the “Tb.Th, L5 lumbar vertebra” value was “significantly improving”; the “bone volume/total volume (BV/TV), L5 lumbar vertebra” value is listed as “significantly improving”. Further, in the series with OVX mice [5], the “trabecular separation (Tb.Sp), L5 lumbar vertebra” value is “significantly improving”. For the same molecule, the “bone resorption in vivo (TRAP staining of tibia sections)” value in the series on OVX mice [6] is given as “inhibitory effect”. Also, in the series with OVX mice [7], the “bone stiffness, femoral midshaft” value is “improved” and the “elastic modulus, femoral midshaft” value is reported as “improved”. Besides, in the series “PK analysis in SD rats” (IV 2.0 mg/kg, G1-Mean (n = 3)), the Cl came to 11.523 mL/min/kg, the “MRT(0-∞)” value is 0.84 h and the Vz is 1.73416 L/kg. In “PK analysis in SD rats” (IV 2.0 mg/kg, G1-Mean (n = 3), listed as BMS, 2 mg/kg), this molecule showed a Cmax of 7094.95 ng/mL. Also, in “PK analysis in SD rats” (PO 10.0 mg/kg, G2-Mean (n = 3)), the “AUC(0-t)” value came out at 5527.36 ng·h/mL. The T1/2 in the series “PK analysis in SD rats” (PO 10.0 mg/kg, G2-Mean (n = 3), listed as BMS, 10 mg/kg) is reported as 3.16 h.

B1: FABP4: recombinant FABP4 protein (MCE, cat#HY-P70293) (protein, UniProt P04117 2-132, looked up)
Fatty acid-binding protein, …: CDAFVGTWKLVSSENFDDYMKEVGVGFATRKVAGMAKPNMIISVNGDLVTIRSESTFKNTEISFKLGVEFDEITADDRKVKSIITLDGGALVQVQKWDGKSTTIKRKRDGDKLVVECVMKGVTSTRVYERA
As to B1, the “osteogenic differentiation capacity of BMSCs (Alizarin Red staining)” value in the series with human BMSCs is on record as “neither the FABP4 protein nor its inhibitor affected”. Further, in the series on BMMs, the “formation of OCs (TRAP staining)” value is “significantly promoted the formation of OCs”. For the same molecule, the “bone resorption by mature OCs on bovine bone slices” value in the series with OCs [8] is “enhanced bone resorption”. Also, the “F-actin / bone skeleton structure of OCs” value in the series with OCs [9] was “more regular and distinct bone skeleton structure with abundant F-actin”. For the same molecule, the “intracellular calcium levels in OCs” value in series [10] is listed as “significant increase”.

Usually Vz stands for the apparent volume that relates the amount in the body to the concentration in plasma or blood. Usually Cmax stands for the maximum level reached in the sampled fluid or tissue. What is called AUC(0-t) is exposure summed from dosing to a finite time, without extrapolation to infinity.
